From US8575216B2, “Method of treatment for acute myelogenous leukemia” (priority 2009, dated 2013)
Where “and” joins values, the source holds several entries; their conditions need not be identical. Equal entries are not always repeated. Entries after “also recorded” stand apart in the source; their conditions may differ. Where two headings read alike, the source gives them in different places.

Legend:
[1] = tested on: primary AML cells; test: Ex vivo cytotoxicity on primary AML cells (cell viability and apoptosis assays)
[2] = 5 patients, 0.125 mg/m^2, cited from earlier work
[3] = tested on: ERK phosphorylation; test: Ex vivo ERK phosphorylation in clinical AML samples (Western analysis); assay type: cell-based, human
[4] = CINJ TPA Phase 1 study, relapsed/refractory malignancies: clinical response and toxicity; assay type: in vivo, human
From the text: 12-O-tetradecanoylphorbol-13-acetate (TPA), an activator of protein kinase C, is being developed as a therapeutic agent for patients with acute myelogenous leukemia (AML) because of its profound effects on intracellular signaling pathways, it's capacity to induce differentiation and/or apoptosis in cell lines, and preliminary clinical data from China indicating effectiveness in myeloid malignancies (Han Z T, Zhu X X, Yang R Y, Sun J Z, Tian G F, Liu X J et al. Effect of intravenous infusions of 12-O-tetradecanoylphorbol-13-acetate (TPA) in patients with myelocytic leukemia: preliminary studies on therapeutic efficacy and toxicity. Proc Natl Acad Sci USA 1998; 95(9):5357-5361). A recently completed Investigator-initiated, Phase I study at The Cancer Institute of New Jersey/Robert Wood Johnson Medical School/UMDNJ represented the only FDA-approved study to administer TPA to patients in the United States and provided a unique opportunity to study the in vivo effects of TPA in patients with relapsed/refractory malignancies for which no standard therapies exist. Thus far clinical evaluation of TPA as a single agent has documented clinical safety when administered on days 1-5 and 8-12.
The initial CINJ TPA Phase 1 study enrolled 35 patients [23 with relapsed/refractory AML, 2 with other myeloid malignancies (CML-blast crisis, myelodysplasia with excess blasts), 3 with Hodgkin's Disease, 3 with non-Hodgkin's lymphoma and 4 with solid tumors]. The majority of patients had relapsed/refractory AML. Our clinical results include one AML patient with stable disease for >5 months, who received 8 TPA infusions. In a second AML patient, a pronounced (5-fold) decline in the number of circulating blasts was seen following TPA administration. This decline in leukemic blasts persisted for 4 weeks; the patient eventually died from a fungal infection.

[5] = tested on: primary AML cells
[6] = AML patients, 48 h treatment with induction chemotherapy
From the text: Clinical trial. […] The study was an open-label trial. […] Inclusion criteria included non-pregnant patients with an Eastern Cooperative Oncology Group performance status of 0 to 3, a bilirubin level more than twice the upper limits of normal, aspartate aminotransferase/alanine aminotransferase level more than thrice the upper limits of normal, and creatinine levels more than 1.5 times the upper limits of normal. Patients with current or recent gastrointestinal bleeding were excluded. […] Dexamethasone was administered at a dose of 10 mg p.o. every 6 h beginning at hour 0 and continuing until hour 48. […] Induction chemotherapy consisted of 3 days of idarubicin in combination with a 7-day continuous infusion of cytarabine. Some patients over the age of 60 received a reduced dose of idarubicin and the addition of etoposide (32).

SMILES	Cytotoxic effects by TPA concentration ([1]; clinical AML samples ex vivo, 32 nM vs 3.2 nM, unpublished observations)	Cytotoxic effects, cell viability and apoptosis assays ([1]; small panel of clinical AML samples, subset of AML cases)	TPA level in blood, average ([2]; immediately post-infusion)	TPA level in blood, average ([2]; one hour post infusion)	ERK phosphorylation ([3]; all primary cultures analyzed by Western analysis, by 1 hour in culture)	TPA concentration (as low as) giving detectable increases in ERK phosphorylation ([3]; ex vivo exposure of clinical AML samples) [nM]	DLT's reported ([4]; CINJ TPA study)	Patients with grade III non-hematologic dose limiting toxicities (DLT) ([4]; last cohort, 0.188 mg/m^2 d1-5, 8-12)	Maximum tolerated TPA dose as a single agent ([4]; on d1-5 and 8-12) [mg/m^2/d]	Duration of stable disease ([4]; one AML patient, 8 TPA infusions) [months]	Clinical response of chest wall mass ([4]; patient with relapsed and refractory Hodgkin's disease)	Persistence of decline in leukemic blasts ([4]; second AML patient) [weeks]	Decline in the number of circulating blasts ([4]; second AML patient, following TPA administration) [fold]	Effect on TPA cytotoxicity [5]	Unusual untoward effects attributable to the agent [6]
CCCCCCCCCCCCCC(=O)O[C@@H]1[C@@H](C)[C@@]2(O)[C@@H](C=C(CO)C[C@]3(O)C(=O)C(C)=C[C@@H]23)[C@@H]2C(C)(C)[C@]12OC(C)=O [TPA, 12-O-tetradecanoylphorbol-13-acetate]	32 nM is more cytotoxic than 3.2 nM	direct cytotoxic effects	1.75 ng/ml blood and 2.8 nM	0.93 ng/ml blood and 1.5 nM	strongly induced	0.032	grade 3 dyspnea, grade 3 hypoxia and a grade 3 episode of hypotension	2 out of 3	0.125	> 5	partial remission	4	5		
C[C@@H]1C[C@H]2[C@@H]3CCC4=CC(=O)C=C[C@]4(C)[C@@]3(F)[C@@H](O)C[C@]2(C)[C@@]1(O)C(=O)CO [dexamethasone]														enhance TPA cytotoxicity	did not detect any unusual untoward effects; also recorded: did not, detect any unusual untoward elects
